Here are results for 24 compounds from article PMC9110766, “Structure-Based Design of 2-Aminopurine Derivatives as CDK2 Inhibitors for Triple-Negative Breast Cancer” (Frontiers in Pharmacology, 2022).

Where a name gives a salt, the structure may show the parent alone.

Data set [1] addresses CDK2/cyclin A (Homo sapiens, UniProt P24941). Kind of data set: CDK2 inhibition, Kinase-Glo Luminescent Kinase Assay. The format is biochemical. The following applies: for IC50: geometric means of n ⩾ 3 experiments, 10 µM ATP, read-out: IC50 against CDK2; for CDK2 inhibitory activity (in words): screened at 0.5 μM; for inhibition at 0.5 µM: read-out: inhibition rate (%) @0.5 μM against CDK2, compound at 0.5 μM. The method, then:
The IC50 values were calculated using Prism GraphPad software.

Consider `Cl.NCc1cccc(-c2nc(Nc3ccc(F)cc3)nc3[nH]cnc23)c1` [Compound 11n, 6-(3-(aminomethyl)phenyl)-N-(4-fluorophenyl)-9H-purin-2-amine hydrochloride], for which the melting point was > 300 °C. Further, the IC50 in data set [1] came out at 0.32 ± 0.06 µM.
As for `O=[N+]([O-])c1cccc(Nc2nc(-c3cccc([N+](=O)[O-])c3)c3nc[nH]c3n2)c1` [Compound 5f, N,6-bis(3-nitrophenyl)-9H-purin-2-amine], the melting point was > 300 °C. Moreover, the “CDK2 inhibitory activity (in words)” value in data set [1] was “abolished CDK2 inhibitory activity”.
For the compound `O=C(O)c1ccc(-c2nc(Nc3cccc([N+](=O)[O-])c3)nc3[nH]cnc23)cc1` [Compound 5j, 4-(2-((3-nitrophenyl)amino)-9H-purin-6-yl)benzoic acid], the melting point was > 300 °C. Also, in data set [1], the inhibition at 0.5 µM is 7% and the “CDK2 inhibitory activity (in words)” value is on record as “low activity”.
Consider `CN(C)S(=O)(=O)c1ccc(Nc2nc(-c3cccc(CN)c3)c3nc[nH]c3n2)cc1.Cl` [Compound 11q, 4-((6-(3-(aminomethyl)phenyl)-9H-purin-2-yl)amino)-N,N-dimethylbenzene sulfonamide hydrochloride], for which the melting point is > 300 °C. For the same compound, the IC50 in data set [1] stood at 0.18 ± 0.02 µM.
Turning to `Cl.NCc1ccc(-c2nc(Nc3cccc([N+](=O)[O-])c3)nc3[nH]cnc23)cc1` [Compound 11d, 6-(4-(aminomethyl)phenyl)-N-(3-nitrophenyl)-9H-purin-2-amine hydrochloride], the melting point was > 300 °C. Also, in data set [1], the 50% inhibitory concentration (IC50) came out at 0.23 ± 0.01 µM.
Consider `O=[N+]([O-])c1cccc(Nc2nc(-c3ccccc3)c3nc[nH]c3n2)c1` [Compound 5a, N-(3-nitrophenyl)-6-phenyl-9H-purin-2-amine], for which the IC50 in data set [1] is 0.31 ± 0.01 µM.
On to `CC(C)(C)c1ccc(Nc2nc(-c3cccc(CN)c3)c3nc[nH]c3n2)cc1` [Compound 11j, 6-(3-(aminomethyl)phenyl)-N-(4-(tert-butyl)phenyl)-9H-purin-2-amine hydrochloride], for which the inhibition at 0.5 µM in data set [1] was determined as 28%.
With `Cl.NCc1cccc(-c2nc(Nc3ccc(-c4ccccc4)cc3)nc3[nH]cnc23)c1` [Compound 11h, N-([1,1′-biphenyl]-4-yl)-6-(3-(aminomethyl)phenyl)-9H-purin-2-amine hydrochloride], the melting point was 210 °C (dec.). For the same compound, the inhibition at 0.5 µM in data set [1] amounted to 13%.
`NCc1ccc(-c2nc(Nc3ccc(F)cc3)nc3[nH]cnc23)cc1` [Compound 11o, 6-(4-(aminomethyl)phenyl)-N-(4-fluorophenyl)-9H-purin-2-amine hydrochloride]: the IC50 in data set [1] amounted to 0.24 ± 0.01 µM.
For the compound `Cl.Nc1ccc(-c2nc(Nc3cccc([N+](=O)[O-])c3)nc3[nH]cnc23)cc1` [Compound 11b, 6-(4-aminophenyl)-N-(3-nitrophenyl)-9H-purin-2-amine hydrochloride], the melting point was > 300 °C. In data set [1], the inhibition at 0.5 µM is 40%.
For the compound `COC(=O)c1ccc(-c2nc(Nc3cccc([N+](=O)[O-])c3)nc3[nH]cnc23)cc1` [Compound 5k, Methyl 4-(2-((3-nitrophenyl)amino)-9H-purin-6-yl)benzoate], the melting point is 212 to 214 °C. Moreover, in data set [1], the inhibition at 0.5 µM worked out at 3% and the “CDK2 inhibitory activity (in words)” value is reported as “abolished CDK2 inhibitory activity”.
Take `Cl.NCCc1cccc(-c2nc(Nc3cccc([N+](=O)[O-])c3)nc3[nH]cnc23)c1` [Compound 11e, 6-(3-(2-aminoethyl)phenyl)-N-(3-nitrophenyl)-9H-purin-2-amine hydrochloride]: the melting point was > 230 °C. The inhibition at 0.5 µM in data set [1] was 35%.
In the case of `Cl.NCc1ccc(-c2nc(Nc3ccccc3)nc3[nH]cnc23)cc1` [Compound 11g, 6-(4-(aminomethyl)phenyl)-N-phenyl-9H-purin-2-amine hydrochloride], the melting point fell in the range of 200 to 202 °C. For the same compound, in data set [1], the IC50 came to 0.13 ± 0.02 µM.
With `COC(=O)c1cccc(-c2nc(Nc3cccc([N+](=O)[O-])c3)nc3[nH]cnc23)c1` [Compound 5h, Methyl 3-(2-((3-nitrophenyl)amino)-9H-purin-6-yl)benzoate], the melting point turned out to be 257 °C. In data set [1], the inhibition at 0.5 µM is 11% and the “CDK2 inhibitory activity (in words)” value is on record as “abolished CDK2 inhibitory activity”.
As for `O=[N+]([O-])c1cccc(Nc2nc(-c3cccc4ccccc34)c3nc[nH]c3n2)c1` [Compound 5b, 6-(naphthalen-1-yl)-N-(3-nitrophenyl)-9H-purin-2-amine], the melting point is > 300 °C. In data set [1], the inhibition at 0.5 µM was determined as 3% and the “CDK2 inhibitory activity (in words)” value is recorded as “weak activity”.
Take `O=[N+]([O-])c1cccc(Nc2nc(-c3ccsc3)c3nc[nH]c3n2)c1` [Compound 5e, N-(3-nitrophenyl)-6-(thiophen-3-yl)-9H-purin-2-amine]: the melting point was > 280 °C. Also, in data set [1], the “CDK2 inhibitory activity (in words)” value is “inactive”.
As to `Cl.O=[N+]([O-])c1cccc(Nc2nc(-c3ccc[nH]3)c3nc[nH]c3n2)c1` [Compound 5c, N-(3-nitrophenyl)-6-(1H-pyrrol-2-yl)-9H-purin-2-amine hydrochloride], the melting point is 236 °C (dec.). Further, in data set [1], the inhibition at 0.5 µM was determined as 37%.
As for `O=[N+]([O-])c1cccc(Nc2nc(-c3ccc(F)cc3)c3nc[nH]c3n2)c1` [Compound 5i, 6-(4-fluorophenyl)-N-(3-nitrophenyl)-9H-purin-2-amine], the “CDK2 inhibitory activity (in words)” value in data set [1] was “abolished CDK2 inhibitory activity”.
With “6-(3-(aminomethyl)phenyl)-N-(4-(piperazin-1-yl)phenyl)-9H-purin-2-amine dihydrochloride [Compound 11r]”, in data set [1], the IC50 amounted to 0.19 ± 0.01 µM.
For the compound `Cl.Cl.NCc1cccc(-c2nc(Nc3cccc(N)c3)nc3[nH]cnc23)c1` [Compound 11m, N ^ 1-(6-(3-(aminomethyl)phenyl)-9H-purin-2-yl)benzene-1,3-diamine dihydrochloride], the melting point was > 300 °C. For the same compound, the inhibition at 0.5 µM in data set [1] was 33%.
As to `Cl.NCc1cccc(-c2nc(Nc3ccc(N4CCNCC4)cc3)nc3[nH]cnc23)c1` [Compound 11k, 6-(3-(aminomethyl)phenyl)-N-(4-(piperazin-1-yl)phenyl)-9H-purin-2-amine hydrochloride], the melting point was > 300 °C. Moreover, the inhibition at 0.5 µM in data set [1] was 26%.
For `O=C(O)c1cccc(-c2nc(Nc3cccc([N+](=O)[O-])c3)nc3[nH]cnc23)c1` [Compound 5g, 3-(2-((3-nitrophenyl)amino)-9H-purin-6-yl)benzoic acid], the IC50 in data set [1] was 0.15 ± 0.01 µM.
`Cl.NCc1cccc(-c2nc(Nc3ccccc3)nc3[nH]cnc23)c1` [Compound 11f, 6-(3-(aminomethyl)phenyl)-N-phenyl-9H-purin-2-amine hydrochloride] registered a melting point of 203 to 205 °C. The inhibition at 0.5 µM in data set [1] was 35%.
With `Cc1ccc(Nc2nc(-c3cccc(CN)c3)c3nc[nH]c3n2)cc1.Cl` [Compound 11i, 6-(3-(aminomethyl)phenyl)-N-(p-tolyl)-9H-purin-2-amine hydrochloride], the melting point was > 300 °C. The IC50 in data set [1] is 0.28 ± 0.02 µM.
